According to patent publication US8551997B2, “Structural-based inhibitors of the glutathione binding site in aldose reductase, methods of screening therefor and methods of use” (The Board of Regents of the University of Texas System, priority 2004, dated 2013):

What was measured:
Caco-2 cells [1] = test: NF-kB p65 transcription factor (DNA binding) assay; type: cell-based, human
Experimental: The cytosolic as well as nuclear extracts were prepared as described earlier (15) and the NF-kB activity was determined by using the colorimetric non-radioactive NF-kB p65 Transcription Factor Assay kit (Chemicon Intl.) as per the supplier's instructions. Briefly, a double stranded biotinylated oligonucleotide containing the consensus sequence for NF-kB binding (5′-[…]-3′; SEQ ID NO: 3) was mixed with nuclear extract and assay buffer. After incubation, the mixture (probe+extract+buffer) was transferred to the streptavidin-coated ELISA kit and read at 450 nm using an ELISA plate reader. For each experiment, triplicate samples were measured for statistical significance.

Caco-2 cells [2] = test: Cox-2 mRNA RT-PCR in Caco-2 cells; type: cell-based, human; settings: sorbinil 24 h, growth factor 3 h
Experimental: Total RNA was isolated from Caco-2 cells by using Rnaeasy micro isolation kit (Qiagen). Total RNA (1.5 μg) sample was reverse transcribed with Omniscript and Sensiscript reverse transcriptase one-Step RT PCR system with HotStarTaq DNA polymerase (Qiagen) at 55° C. for 30 min followed by PCR amplification. The oligonucleotide primer sequences were as follows: 5′-[…]-3′ (sense; SEQ ID NO: 4) and 5′-[…]-3′ (antisense; SEQ ID NO: 5) for Cox-2, and 5′-[…]-3′ (SEQ ID NO: 6) and 5′-[…]-3′ (SEQ ID NO: 7) for β-actin. PCR reaction was carried out in a GeneAmp 2700 thermocycler (Applied Biosystems, Foster City, Calif.) under the following conditions: initial denaturation at 95° C. for 15 min; 35 cycles of 94° C. 30 s, 62° C. 30 s, 72° C. 1 min, and then 72° C. 5 min for final extension (57). PCR products were electrophoresed in 2% Agarose-1™ TAE gels containing 0.5 μg/ml ethidium bromide.

HT29 cells = test: HT29 cell proliferation, MTT assay; type: cell-based; settings: inhibitor alone
Experimental: HT29 cells were grown to confluence in McCoy's medium and harvested and plated 2,500 per well in a 96-well plate. Subconfluent cells were growth arrested in 0.1% FBS with or without AR inhibitor sorbinil or zopolrestat (20 μM). After 24 hours, EGF (5 ng/ml) or BFGF (10 ng/ml) was added to the medium and the cells were incubated for another 24 hours. Cells incubated with the AR inhibitors alone served as control. Cell viability was determined by an MTT assay.

A549 cells [3] = test: Western blot of cell cycle regulatory proteins in A549 cells; type: cell-based, human; settings: various concentrations
Experimental: (§1) To examine expression of any of Cox-1, Cox-2, phospho-PKC-2, GAPDH, E2F1, Cyclin D1, Cyclin E, and iNOS proteins, Western blot analyses were carried by known methods (15). Equal amounts of protein from cell extracts were subjected to 12% SDS-PAGE followed by transfer of proteins to nitrocellulose filters, probing with the indicated antibodies, and the antigen-antibody complex was detected by enhanced chemiluminescence (Pierce, Piscataway, N.J., USA).

A549 cells [4] = test: Western blot of Cox-2 and iNOS in A549 cells; type: cell-based, human; settings: concentration dependent
Experimental: as §1

Caco-2 cells [5] = test: PGE2 assay in Caco-2 cells; type: cell-based, human
Experimental: Caco-2 cells were plated in 6 well plates at a density of 2×10^5 cells/well. After 24 hours, the medium was replaced with fresh medium containing 0.1% serum with or without, sorbinil (20 μM) followed by treatment with either 10 ng/ml BFGF or PDGF, for another 24 h. HT29 cells were plated in 6 well plate at a density of 2×10^5 cells/well. After 24 hours, medium was replaced with serum-free medium with or without, sorbinil or zopolrestat (20 μM) followed by treatment with either EGF (5 ng/ml) or BFGF (10 ng/ml) for another 24 h. The medium from each cell lines was collected from each well and analyzed for PGE2 by using an Enzyme Immuno Assay kit according to the manufacturer's instructions (Cayman Chemical Co., Inc.).
Briefly, 50 μl of diluted standard/sample were pipetted into a pre-coated goat polyclonal anti-mouse IgG 96-well plate. Aliquots (50 μl) of a PGE2 monoclonal antibody and PGE2 acetylcholine esterase (AchE) conjugate, (PGE2 tracer) were added to each well and allowed to incubate at 4° C. for 24 h. After incubation, the wells were washed five times with wash buffer containing 0.05% Tween-20, followed by the addition of 200 μl of Ellman's reagent containing acetylthiocholine and 5,5′-dithio-bis-(2-nitrobenzoic acid). Samples were read after 60 min at 412 nm with an ELISA reader. In this procedure the intensity of yellow color, is proportional to the amount of PGE2 tracer bound to the well and is inversely proportional to the amount of free PGE2 present in the well during incubation.

HT29-GFP cells = test: HT29-GFP liver metastasis in nude mice; type: in vivo, mouse; settings: sorbinil 40 mg/kg body weight in the diet, 34 days
Experimental: For in vivo metastasis studies, 4- to 6-weeks-old male nude^nu/nu mice were obtained from Harlan Sprague Dawley (Indianapolis, Ind.) and housed in clean, pathogen-free rooms in an environment with controlled temperature (22° C.), humidity and a 12 hours light/dark cycle. The mice were fed standard chow (Formula Chow 5008; Purina Mills, St. Louis, Mo.), given tap water ad libitum and were allowed to acclimate for 1 week. Metastatic HT29-GFP cells were injected intrasplenically by known methods.
Briefly, mice were anesthetized with halothane, a small left abdominal flank incision was created and the spleen was exteriorized. HT29-GFP cells were harvested using only trypsin and were resuspended as a single-cell suspension in Hanks Balanced Salt Solution, free of Mg^2+ and Ca^2+. HT29-GFP cells (5×10^6 cells/400 μl) were injected into the spleen with a 27-gauge needle. The spleen was returned to the abdomen and the wound was closed in one layer with wound clips. After 24 hrs spleen was removed and animals were randomized into metastatic control and AR inhibitor, sorbinil group. Control group was fed with normal diet and AR inhibitor group fed with sorbinil (40 mg/kg body weight) in the diet. Mice were killed after 35 days, and metastasis in the liver was evaluated by using the Illumatool TLS (Lightools Research, Encinitas, Calif.). […]

## (S)-6-fluorospiro[chroman-4,4′-imidazolidine]-2,5′-dione [sorbinil]
Caco-2 cells [1]
  inhibition of BFGF or PDGF-induced NF-kB DNA binding activity: > 70%
Caco-2 cells [2]
  prevention of BFGF or PDGF-induced Cox-2 mRNA levels: 55-65%
HT29 cells
  HT29 cells proliferation: did not cause any effect
A549 cells [3]
  E2F-1, Cyclin E and Cyclin D1 expression: significant inhibition
A549 cells [4]
  Cox-2 and iNOS expression: inhibit
Caco-2 cells [5]; sorbinil 20 μM, 10 ng/ml BFGF or PDGF, 24 h
  prevention of PGE2 production induced by BFGF and PDGF: > 90%
Caco-2 cells [5]; sorbinil 24 h, GS-DHN-ester 24 h
  GS-DHN-induced PGE2 production: had no effect
Caco-2 cells [5]; sorbinil 24 h, aldehydes 24 h
  HNE and GS-HNE-induced PGE2 production: significantly prevented
Caco-2 cells [5]; sorbinil alone
  constitutive levels of PGE2: did not inhibit
HT29-GFP cells
  tumor metastasis to the liver (GFP fluorescence, pixel numbers): significant decrease
